Among the test systems are Candida albicans; Escherichia coli 078; Escherichia coli ER2566; Escherichia coli K88; Escherichia coli UB1005; Escherichia coli; Listeria monocytogenes; Candida albicans SC5314; Pseudomonas aeruginosa.
Common to all, as to assay: ≥ marks a high value that may be exact or a test limit, other limits are often not marked, values filed in µg/mL are converted to µM
Assay [1] deals with Erwinia amylovora PMV 6076.
Assay [2] concerns Pseudomonas syringae pv. actinidiae Psa3700.1.1.
Assay [3] concerns Pseudomonas syringae pv. syringae EPS 94.
Assay [4] relates to Xanthomonas arboricola pv. pruni CFBP 5563.
For assay [5], the system named is Xanthomonas campestris pv. Vesicatoria 2133-2.
Assay [6] has as its system Xanthomonas fragariae Xf349-9A.
Assay [7] deals with Bacillus subtilis ATCC 6633.
In assay [8] the test system is Enterococcus faecalis ATCC 12953.
For assay [9], the system named is Escherichia coli ATCC 8739.
For assay [10], the system named is Klebsiella pneumoniae ATCC 13885.
The test system of assay [11] is Proteus mirabilis ATCC 25933.
Assay [12] concerns Pseudomonas aeruginosa ATCC 15442.
Assay [13] concerns Salmonella enterica subsp. enterica serovar Typhimurium ATCC 14028.
Assay [14] concerns Staphylococcus aureus ATCC 29213.
Assay [15] concerns Streptococcus pyogenes ATCC 19615.
Assay [16] concerns Bacillus subtilis ATCC 11060.
Assay [17] has as its system Enterococcus faecalis ATCC 29212.
Assay [18] concerns Escherichia coli CMCC 44102.
In assay [19] the test system is Escherichia coli CVCC 1515.
The subject of assay [20] is Neisseria gonorrhoeae F-62.
The test system of assay [21] is Neisseria gonorrhoeae FA-19.
For assay [22], the system named is Pseudomonas aeruginosa ATCC 10419.
Assay [23] relates to Pseudomonas aeruginosa ATCC 21625.
Assay [24] has as its system Pseudomonas aeruginosa ATCC 21630.
Assay [25] relates to Pseudomonas aeruginosa ATCC 27853.
In assay [26] the test system is Salmonella enterica subsp. enterica serovar Pullorum C79-13.
Assay [27] deals with Salmonella enterica subsp. enterica serovar Typhimurium C77-31.
Assay [28] has as its system Staphylococcus aureus ATCC 25923.
For assay [29], the system named is Staphylococcus epidermidis ATCC 12228.
Assay [30] relates to Candida albicans 08022710.
Assay [31] concerns Candida albicans 08022821.
The test system of assay [32] is Candida albicans ATCC 2002.
The test system of assay [33] is Pseudomonas aeruginosa 08031014.
Assay [34] deals with Staphylococcus aureus 08A865.
Assay [35] relates to Staphylococcus aureus 08A875.
The subject of assay [36] is Staphylococcus aureus ATCC 2592.

≈ marks a conversion by molar mass, not a printed value. Where “and” joins values, the source holds several entries; their conditions need not be identical. Identical values can stand only once. Some results are limits rather than exact numbers.

Turning to `CC[C@H](C)[C@H](NC(=O)[C@H](CCCCN)NC(=O)[C@H](CCCCN)NC(=O)[C@H](CC(C)C)NC(=O)[C@H](CC(=O)O)NC(=O)[C@@H](NC(=O)[C@@H](N)Cc1ccccc1)C(C)C)C(=O)N[C@@H](C)C(=O)N[C@@H](CC(N)=O)C(=O)N[C@H](C(=O)N[C@H](C(=O)N[C@@H](CC(N)=O)C(=O)N[C@@H](CO)C(=O)N[C@H](C(=O)N[C@@H](Cc1ccccc1)C(=O)NCC(=O)N[C@@H](CCCCN)C(N)=O)[C@@H](C)CC)[C@@H](C)CC)[C@@H](C)CC` [FVDLKKIANIINSIFGK], the MIC (commonly the smallest concentration in the dilution series that meets the test's criterion for growth inhibition) in assay [1] was at least 35.4 µM; in assay [2], at least 50 µM; in assay [3], at least 50 µM; in [4], 2.84 µM (≈ 5.45 µg/mL); in [5] it was 4.38 µM (≈ 8.41 µg/mL); in [6], at least 50 µM.

Take `CC[C@H](C)[C@H](N)C(=O)N[C@@H](Cc1ccc(O)cc1)C(=O)N[C@@H](Cc1ccc(O)cc1)C(=O)N1CCC[C@H]1C(=O)N1CCC[C@H]1C(=O)N[C@@H](CC(N)=O)C(=O)N[C@@H](Cc1cnc[nH]1)C(=O)N[C@@H](CC(N)=O)C(=O)N[C@@H](Cc1ccccc1)C(=O)N1CCC[C@H]1C(N)=O` [IYYPPNHNFP]: the MIC in assay [7] was at least 203 µM; in [8], at least 101 µM; in assay [9], at least 203 µM; in assay [10], at least 101 µM; in assay [11] it was at least 101 µM; in assay [12] it was at least 203 µM. The MIC in assay [13] was 203 µM (≈ 256 µg/mL); in assay [14] it was 203 µM (≈ 256 µg/mL); in assay [15], at least 101 µM.

In the case of `CC(C)C[C@H](NC(=O)CNC(=O)CNC(=O)CNC(=O)[C@@H](N)CCCNC(=N)N)C(=O)N[C@H]1CSSC[C@@H](C(=O)N[C@H](C(=O)NCC(=O)N[C@@H](CCCNC(=N)N)C(N)=O)C(C)C)NC(=O)[C@H](C(C)C)NC(=O)[C@@H]2CSSC[C@H](NC(=O)[C@H](Cc3ccc(O)cc3)NC1=O)C(=O)N[C@@H](CCCNC(=N)N)C(=O)N[C@@H](CCCNC(=N)N)C(=O)N[C@@H](CCCNC(=N)N)C(=O)N[C@@H](Cc1ccccc1)C(=O)N2` [RGGGLCYCRRRFCVCVGR], the MIC stood at 16.1 µM (≈ 33.1 µg/mL) in [16]; 4.66 µM (≈ 9.58 µg/mL) in the assay on Candida albicans; 32.2 µM (≈ 66.2 µg/mL) in assay [17]; 16.1 µM (≈ 33.1 µg/mL) against Escherichia coli 078; 1.02 µM (≈ 2.09 µg/mL) in assay [18]; 1.99 µM (≈ 4.09 µg/mL) in assay [19]. Moreover, the MIC came out at 0.485 µM (≈ 0.998 µg/mL) in the assay on Escherichia coli ER2566; 4.03 µM (≈ 8.28 µg/mL) against Escherichia coli K88; 1.99 µM (≈ 4.09 µg/mL) against Escherichia coli UB1005; 1.12 µM (≈ 2.29 µg/mL) against Escherichia coli; 1.36 µM (≈ 2.79 µg/mL) with Listeria monocytogenes; 0.679 µM (≈ 1.4 µg/mL) in assay [20]. The MIC came out at 0.873 µM (≈ 1.8 µg/mL) in [21]; 4.03 µM (≈ 8.28 µg/mL) in assay [22]; 8.05 µM (≈ 16.6 µg/mL) in [23]; 8.05 µM (≈ 16.6 µg/mL) in assay [24]; 4.03 µM (≈ 8.28 µg/mL) in [25]; 1.99 µM (≈ 4.09 µg/mL) in assay [26]. For the same molecule, the MIC in assay [13] turned out to be 1.99 µM (≈ 4.09 µg/mL); in [27], 4.03 µM (≈ 8.28 µg/mL); in assay [28], 8.05 µM (≈ 16.6 µg/mL); in assay [14], 4.03 µM (≈ 8.28 µg/mL); in [29] it was 32.2 µM (≈ 66.2 µg/mL).

As for `CC[C@H](C)[C@H](NC(=O)[C@H](Cc1cnc[nH]1)NC(=O)[C@H](CO)NC(=O)[C@@H](NC(=O)[C@@H](NC(=O)[C@@H](NC(=O)[C@@H](NC(=O)[C@H](CCCNC(=N)N)NC(=O)[C@H](CC(C)C)NC(=O)[C@H](CCCCN)NC(=O)[C@H](CCC(=O)O)NC(=O)[C@H](CCCCN)NC(=O)[C@H](CC(C)C)NC(=O)[C@H](CCCCN)NC(=O)[C@@H]1CSSC[C@H](NC(=O)[C@H](CCCCN)NC(=O)[C@@H](N)CCCNC(=N)N)C(=O)N[C@@H](CC(N)=O)C(=O)N[C@@H](Cc2ccccc2)C(=O)N[C@@H](CC(C)C)C(=O)N1)[C@@H](C)O)C(C)C)[C@@H](C)CC)[C@@H](C)O)C(=O)N[C@@H](CC(=O)O)C(=O)N[C@@H](CCCCN)C(=O)N[C@H](C(=O)N[C@@H](CC(C)C)C(=O)N[C@@H](CCCNC(=N)N)C(=O)N1CCC[C@H]1C(=O)N[C@@H](CCC(N)=O)C(=O)NCC(=O)O)C(C)C` [RKCNFLCKLKEKLRTVITSHIDKVLRPQG], the MIC in [7] is 29.2 µM and 21.9 µM; in assay [30], 5.47 µM (≈ 18.7 µg/mL); in assay [31] it was 2.74 µM (≈ 9.37 µg/mL); in assay [32] it was 1.37 µM and 0.686 µM; with Candida albicans SC5314, at least 64 µM; in the assay with Candida albicans, 1.37 µM (≈ 4.69 µg/mL). Moreover, the minimal inhibitory concentration (MIC) against Escherichia coli was 1.94 µM (≈ 6.63 µg/mL); in assay [33], 10.9 µM (≈ 37.5 µg/mL); in assay [25], 5.47 µM and > 2.74 µM; against Pseudomonas aeruginosa it was 2.74 µM (≈ 9.37 µg/mL); in [34] it was 2.74 µM (≈ 9.37 µg/mL); in assay [35], 5.47 µM (≈ 18.7 µg/mL). Also, the MIC in assay [36] was 2.74 µM and 1.37 µM; in assay [14] it was over 64 µM.
